In patent US10851096B2, “Aryl and heteroaryl amides for use as anti-proliferative, anti-thrombotic, and anti-viral agents” (Rutgers, The State University of New Jersey, priority 2016, dated 2020):
pIC50: −log10 of the molar value.

Key:
[1] = target: T1, Axl/Gas6 interaction (Homo sapiens, UniProt P30530); experiment: Pull-down competitive inhibition assay of Gas6 binding to His-tagged soluble Axl; conditions: His-tagged soluble Axl Ig1/Ig2 with recombinant Gas6
T1 construct: His-tagged soluble Axl Ig1/Ig2 recombinant proteins; Amgen (Gas6 only)
Description: 400 nM His tagged-sAxl were co-incubated with increasing amounts of compound 1A (0, 5, 10 or 20 μM) in a 50 μl reaction mixture of Tris-Nacl Buffer (20 mM Tris.HCl, 150 mM NaCl, pH 8.0), and incubated at 37° C. for 60 minutes, with intermittent mixing. Thereafter, equal amount of hGas6 (100 nM) was added to each tube and incubated at 37° C. for another 60 minutes, with intermittent mixing. To each of the tubes, 1 μg of 6×-His antibody was added and the mixture was incubated overnight at 4° C. on a rotary mixer. After overnight incubation, 30 μl of Protein A/G PLUS agarose beads (Santa Cruz) were added into each of the tubes and incubated for an hour at 4° C. The mixtures were centrifuged and the pellets were then washed four times in ice-cold Nonidet P-40 buffer (20 mM Tris.HCl, 150 mM NaCl, pH 8.0 and 1% Nonidet P-40). Pellets were re-suspended in 30 μl of 2× sample loading dye and boiled for 5 min at 95° C. The samples were fractionated by SDS-PAGE and bound Gas6 was analyzed by immunoblotting.

[2] = tested on: Akt phosphorylation; experiment: Gas6-inducible Akt phosphorylation in Axl-positive cancer cell lines; format: cell-based, human; conditions: pre-treatment with 10 μM
Description: (§1) Stable hAxl/IFN-γR1 CHO reporter cell lines (containing human Axl extracellular domains and transmembrane and intracellular domains of human IFN-γR1) were serum starved for 5 hrs±small molecule inhibitors and then stimulated with human Gas6 conditioned media±small molecule inhibitors for 30 minutes. For H1299 human non-small cell lung carcinoma and MDA-MB-231 human breast adenocarcinoma cell lines, the cells were serum starved overnight±small molecule inhibitors and stimulated with human Gas6 conditioned media±small molecule inhibitors for 30 minutes. Whole cell lysates of hAxl/IFN-γR1, H1299 and MDA-MB-231 cells were prepared using HNTG buffer (20 mM HEPES, pH 7.5, 150 mM NaCl, 10% glycerol, 1% Triton X-100, 1 mM PMSF, 1 mM Na3VO4, 10 mM Na2MoO4, 1 mM EDTA, 10 mM NaF and 20 μg/mL aprotinin). The resulting lysates were resolved on SDS-PAGE gel and immunoblotted with respective antibodies.

[3] = tested on: normal (non-cancerous) cells; experiment: Cytotoxicity assays using normal (non-cancerous) cells; format: cell-based
[4] = tested on: H1299 cells; experiment: Gas6-inducible motility through transwell pore, H1299; format: cell-based, human; conditions: pretreatment of H1299 cells
[5] = Pharmacokinetics in mice (half-life, bioavailability); format: in vivo, mouse; conditions: for half-life: mouse, in vivo, read-out: half-life (t1/2) (converted)
[6] = target: T2, hAxl/IFN-γR1 (Homo sapiens, UniProt P30530); experiment: hAxl/IFN-γR1 CHO reporter cell line assay, Gas6-induced activation (pSTAT1 immunoblot); format: cell-based; conditions: for apparent EC50, anti-Axl activity: Axl reporter system; for pIC50: dose-response, FIG. 2A/2B, read-out: IC50, Axl-inhibitory activity on hAxl/IFN-γR1 reporter cell lines
T2 construct: containing human Axl extracellular domains and transmembrane and intracellular domains of human IFN-γR1; human IFN-γR1 transmembrane and intracellular domains (fusion partner); expressed in transfected cells
T2 sequence (P30530 26-451 limits assumed): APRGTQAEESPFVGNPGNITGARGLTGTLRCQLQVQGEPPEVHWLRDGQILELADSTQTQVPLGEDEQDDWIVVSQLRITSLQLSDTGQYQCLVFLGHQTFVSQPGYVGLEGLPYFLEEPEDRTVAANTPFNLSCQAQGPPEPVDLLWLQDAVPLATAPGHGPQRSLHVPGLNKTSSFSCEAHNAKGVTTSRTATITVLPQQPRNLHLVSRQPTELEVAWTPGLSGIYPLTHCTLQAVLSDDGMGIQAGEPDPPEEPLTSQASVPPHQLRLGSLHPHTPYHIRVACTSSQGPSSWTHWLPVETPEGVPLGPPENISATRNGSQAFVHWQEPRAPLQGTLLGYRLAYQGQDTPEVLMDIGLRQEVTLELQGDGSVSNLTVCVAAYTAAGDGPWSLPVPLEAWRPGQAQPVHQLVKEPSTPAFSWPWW
Description: Stable HEK 293 cells secreting human Gas6 (clone 7.4.1) were allowed to achieve 70% confluence in a 10-cm plate. The complete medium with 10% FBS was then changed into serum free media in the presence of 10 µg/mL vitamin K1 (Phytonadione injectable emulsion from Hospira). After 72 hours, the Gas6 conditioned medium was collected, and validated for the presence of Gas6 and γ-carboxylation (by immunoblot) and activity of Gas6 (via activation of pSTAT1 in hAxl/γR1 cells).
as §1
Immunoblot data were obtained within a linear range of exposure, and intensities were quantified by ImageJ. The levels of hAxl/IFN-γR1 cells lines activation were measured by pSTAT1 whereas the levels of H1299 and MDA-MB-231 cell lines activation were measured by pAxl signal intensities. Blots were normalized to intensities of respective β-actin or GAPDH protein loading controls. The levels of pSTAT1 or pAxl activation induced by Gas6±small molecule inhibitors were plotted as a fold of enhancement or reduction over intensities induced by Gas6 alone.

[7] = Venous thromboembolism (VTE) mouse model; format: in vivo; conditions: 200 mg/kg qd IP for three days
[8] = Cancer associated VTE mouse model; format: in vivo; conditions: 200 mg/kg qd IP for three days

With `Cc1noc(C)c1CSc1ccccc1C(=O)N1CCN(c2cccc(C(F)(F)F)c2)CC1` [1I] the “inhibition of Axl/Gas6 interaction in vitro” value [1] was “able to inhibit in vitro the Axl/Gas6 interaction in a dose-dependent manner”, the “Gas6-inducible Akt phosphorylation” value [2] was “abrogated” and the cellular toxicity [3] was “no discernible cellular toxicity”. For the same compound, the “Gas6-inducible motility through an 8 μm pore” value [4] was “strongly suppressed”, the bioavailability [5] was “good bioavailability” and the half-life [5] was roughly 8 h. The remaining activity at 10 µM [6] was 20%, the “apparent EC50, anti-Axl activity” value [6] was “low micro-molar range” and the pIC50 [6] was 5.94.
For `Cc1cc(CSc2ccccc2C(=O)NCCNc2ccc(C(F)(F)F)cc2[N+](=O)[O-])on1` [1Q], the “inhibition of Axl/Gas6 interaction in vitro” value [1] was “able to inhibit in vitro the Axl/Gas6 interaction in a dose-dependent manner”, the “reduction in thrombus size” value [7] was “approximately 37.3%” and the “Gas6-inducible Akt phosphorylation” value [2] was “abrogated”. For the same compound, the cellular toxicity [3] was “no discernible cellular toxicity”, the “reduction in thrombus size” value [8] was 45% and the “Gas6-inducible motility through an 8 μm pore” value [4] was “strongly suppressed”. The bioavailability [5] was “good bioavailability”, the half-life [5] was roughly 8 h and the remaining activity at 10 µM [6] was 10%. For the same compound, the “apparent EC50, anti-Axl activity” value [6] was “low micro-molar range” and the pIC50 [6] was 5.90.
